The values below come from patent US20090053168A1, “TREATMENTS OF B-CELL PROLIFERATIVE DISORDERS” (priority 2007, published 2009).

Values joined by “and” are separate entries in the source; they are usually repeats but may differ in a detail not shown here. Identical values can stand only once. Like-named read-outs stand apart in the source and are kept apart here.

One experiment concerns OCI-ly10 DLBCL cells. The experiment can be described thus: Anti-proliferation assay (ATPLite, 72 h), OCI-ly10. The note with it: in combination with CGS-21680. It counts as cell-based. Background: In ATP-based viability assays light output follows the ATP content of the culture.
A further experiment relates to Karpas 422 DLBCL cells. The experiment is described as follows: Anti-proliferation assay (ATPLite, 72 h), Karpas 422. It counts as cell-based. The note with it: in combination with CGS-21680.
For another experiment, the system named is SU-DHL6 DLBCL cells. The experiment is described as follows: Anti-proliferation assay (ATPLite, 72 h), SU-DHL6. It counts as cell-based. The note with it: in combination with CGS-21680.
Experiment [1] relates to MM.1S cells. The experiment can be described thus: Anti-proliferation assay (ATPLite, 72 h), MM.1S. The note with it: for activity and synergy in antiproliferation assays: RPMI-8226, H929, MM.1S and MM.1R MM cell lines; for IC50: 2-fold dilutions.
Experiment [2] has as its system GA-10 (Burkitt's lymphoma) cells. The experiment is described as follows: Anti-proliferation assay (ATPLite, 72 h), GA-10. It counts as cell-based. As to conditions: x dexamethasone.
Another experiment relates to RPMI-8226 cells. The experiment is described as follows: Anti-proliferation assay (ATPLite, 72 h), RPMI-8226. It counts as cell-based.
A further experiment concerns H929 cells. The experiment is described as follows: Anti-proliferation assay (ATPLite, 72 h), H929. It counts as cell-based.
Experiment [3] has as its system mantle cell lymphoma cell line Mino. The experiment can be described thus: Anti-proliferation assay (ATPLite, 72 h), Mino. It counts as cell-based, human. The method, then: (§1) All of the cell lines were cultured in RPMI-1640 media supplemented with 10% FBS except OCI Ly10 cells (IMDM media supplemented with 20% human serum). The ANBL-6 cell line culture media also contained 10 ng/ml IL-6. MM.1S, MM.1R, SU-DHL6, Karpas 422, and OCI ly10 cells were provided by the Dana Farber Cancer Institute. ANBL-6 cells were provided by Bob Orlowsli (M.D. Anderson Cancer Research Center). H929, RPMI-8226, GA-10, Farage, Mino, JVM-13, Pfeiffer, Toledo, and Kusami-1 cells were from ATCC (Cat #'s CCL-155, CRL-9068, CRL-2392 CRL-2630, CRL-3000, CRL-3003, CRL-2632, CRL-2631, and CRL-2724 respectively). MOLP-8, OPM2, EJM, and KSM-12-PE cells were from DSMZ.
(§2) Compounds were prepared in DMSO at 1000× the highest desired concentration. Master plates were generated consisting of serially diluted compounds in 2- or 3-fold dilutions in 384-well format. For single agent dose response curves, the master plates consisted of 9 individual compounds at 12 concentrations in 2- or 3-fold dilutions. For combination matrices, master plates consisted of individual compounds at 6 or 9 concentrations at 2- or 3-fold dilutions.
(§3) The average untreated well value (avg. untreated wells) is the arithmetic mean of 40 wells from the same assay plate treated with vehicle alone. Negative inhibition values result from local variations in treated wells as compared to untreated wells.
(§4) The uncertainty of each fitted parameter was estimated from the range over which the change in reduced chi-squared was less than one, or less than minimum reduced chi-squared if that minimum exceeded one, to allow for underestimated σI errors.
(§5) Single agent curve data were used to define a dilution series for each compound to, be used for combination screening in a 6×6 matrix format. […] For compounds with no detectable single agent activity, a dilution factor of 4 was used, starting from the highest achievable concentration.
(§6) The Loewe additivity model was used to quantify combination effects. Combinations were ranked initially by Additivity Excess Volume, which is defined as ADD Volume=ΣCX, CY(Idata−ILoewe). where ILoewe(CX,CY) is the inhibition that satisfies (CX/ECX)+(CY/ECY)=1, and ECX,Y are the effective concentrations at ILoewe for the single agent curves. A “Synergy Score” was also used, where the Synergy Score S=log fX log fY ΣIdata (Idata−ILoewe), summed over all non-single-agent concentration pairs, and where log fX,Y is the natural logarithm of the dilution factors used for each single agent.

Another experiment relates to OPM2 cells. The experiment is described as follows: Anti-proliferation assay (ATPLite, 72 h), OPM2. It counts as cell-based, human.
Experiment [4] concerns mantle cell lymphoma cell line JVM-13. The experiment is described as follows: Anti-proliferation assay (ATPLite, 72 h), JVM-13. It counts as cell-based, human. The method, then:
as §1, §2, §3, §4, §5, §6

The subject of experiment [5] is Farage (non-Hodgkin's B cell lymphoma) cells. The experiment can be described thus: Anti-proliferation assay (ATPLite, 72 h), Farage. It counts as cell-based. As to conditions: x dexamethasone.
In another experiment the test system is KSM-12-PE cells. The experiment is described as follows: Anti-proliferation assay (ATPLite, 72 h), KSM-12-PE. The note with it: in combination with CGS-21680; KSM-12-PE. The experiment is classed as cell-based.
In another experiment the test system is EJM cells. The experiment can be described thus: Anti-proliferation assay (ATPLite, 72 h), EJM. It counts as cell-based. The note with it: in combination with CGS-21680.
A further experiment concerns MOLP-8 cells. The experiment is described as follows: Anti-proliferation assay (ATPLite, 72 h), MOLP-8. As to conditions: in combination with CGS-21680. The experiment is classed as cell-based.
A further experiment concerns ANBL-6 cells. The experiment is described as follows: Anti-proliferation assay (ATPLite, 72 h), ANBL-6. The experiment is classed as cell-based. The note with it: in combination with CGS-21680.
For experiment [6], the system named is MM.1S cells.
The mark [7] stands for this setting: read-out: IC50 (+IL-6), MM.1S cells grown in presence of 10 ng/ml IL-6.
[8] abbreviates: read-out: IC50 (no IL-6), MM.1S cells grown in absence of IL-6.

As for `Cn1c2ccccc2c2c3c(c4c5ccccc5n(CCC#N)c4c21)CNC3=O` [Go 6976], the figures for the synergy score in the experiment on OCI-ly10 DLBCL cells, with Karpas 422 DLBCL cells and with SU-DHL6 DLBCL cells were 1.61, 2.91 and 3.69, respectively.
As usually defined, the IC50 is the concentration at which inhibition is half-maximal. For the compound `CCCCC#Cc1nc(N)c2ncn([C@@H]3O[C@H](C(=O)NCC)[C@@H](O)[C@H]3O)c2n1` [HE-NECA, hexynyladenosine-5′-N-ethylcarboxamide], the “Synergy score with dexamethasone, MM.1S” value in the experiment with MM.1S cells [1] is 8.94. Further, the “percent inhibition of cell proliferation” value was 46% and 31% with MM.1S cells [1]; −0.91% with MM.1S cells [1] (HE-NECA 0.181 nM alone); 9.2% with MM.1S cells [1] (HE-NECA 0.363 nM alone); 11% with MM.1S cells [1] (HE-NECA 0.725 nM alone); 35% with MM.1S cells [1] (HE-NECA 2.9 nM alone); 42% with MM.1S cells [1] (HE-NECA 5.8 nM alone). The “percent inhibition of cell proliferation” value was 51% with MM.1S cells [1] (HE-NECA 23.2 nM alone); 7.9% and 4.1% in [3] (HE-NECA 2.5 nM alone); 12% in [3] (HE-NECA 5 nM alone); 10% and 4.7% in experiment [3] (HE-NECA 10 nM alone); 1% in the experiment on OPM2 cells (HE-NECA 2.5 nM alone); 2.6% in the experiment on OPM2 cells (HE-NECA 5 nM alone). The “percent inhibition of cell proliferation” value in the experiment with OPM2 cells (HE-NECA 10 nM alone) is listed as 0.4%; in the experiment on OPM2 cells (HE-NECA 20 nM alone), 4.8%; in experiment [4] (HE-NECA 2.5 nM alone), −0.9%; in experiment [4] (HE-NECA 5 nM alone), −1.5%; in experiment [4] (HE-NECA 10 nM alone), 2.1%; in experiment [4] (HE-NECA 20 nM alone), −9.7%. Further, the “activity and synergy in antiproliferation assays” value in the experiment on MM.1S cells [1] was “active and synergistic”. Further, the results for the IC50 with MM.1S cells [1] (setting [7]) and in the experiment on MM.1S cells [1] (setting [8]) were 0.88 nM and 6.5 nM, respectively. Moreover, the synergy score in [2] worked out at 1.64; in experiment [5], 3.6. Besides, the “Synergy score with dexamethasone, RPMI-8226” value in the experiment with RPMI-8226 cells was found to be 17.7. In addition, the “Synergy score with dexamethasone, H929” value in the experiment with H929 cells is given as 7.62.
Take `O=C(Nc1c(Cl)cncc1Cl)c1ccc(OC(F)F)c(OCC2CC2)c1` [roflumilast]: the synergy score was 2.54 in the experiment on MM.1S cells [1] (in combination with CGS-21680, MM.1S); 0.27 in the experiment with KSM-12-PE cells; 3.32 in the experiment on OCI-ly10 DLBCL cells; 1.06 in the experiment on EJM cells; 3.44 in the experiment with MOLP-8 cells; 3.73 in the experiment with ANBL-6 cells. Also, the synergy score in the experiment with OPM2 cells (in combination with CGS-21680, OPM-8) came out at 0.29; in the experiment with Karpas 422 DLBCL cells, 3.38; in the experiment on SU-DHL6 DLBCL cells, 0.93.
Take `OC[C@H]1O[C@H](n2cnc3c(NC4CC5CCC4C5)ncnc32)[C@H](O)[C@@H]1O` (stereo partly drawn) [(S)-ENBA, S-N^6-(2-endo-norbornyl)adenosine]: the “Synergy score with dexamethasone, MM.1S” value with MM.1S cells [1] turned out to be 7.30. Moreover, the “percent inhibition of cell proliferation” value came out at 14% in the experiment on MM.1S cells [1] ((S)-ENBA 0.173 μM alone); 14% with MM.1S cells [1] ((S)-ENBA 0.519 μM alone); 50% with MM.1S cells [1] ((S)-ENBA 1.56 μM alone); 49% with MM.1S cells [1] ((S)-ENBA 4.67 μM alone); 62% with MM.1S cells [1] ((S)-ENBA 14 μM alone). Besides, the “activity and synergy in antiproliferation assays” value in the experiment on MM.1S cells [1] was “active and synergistic”. Moreover, the results for the IC50 in the experiment on MM.1S cells [1] (setting [7]) and in the experiment on MM.1S cells [1] (setting [8]) were 1530 nM and 2270 nM, respectively. The synergy score in experiment [2] turned out to be 1.05; in [5], 1.37. The “Synergy score with dexamethasone, RPMI-8226” value in the experiment with RPMI-8226 cells is 8.64. The “Percent inhibition of cell growth by (S)-ENBA” value (“Percent inhibition … (S)-ENBA” below) with MM.1S cells [6] ((s)-ENBA 0.17 μM, 78 nM SCH58261) came to 4.5%; with MM.1S cells [6] ((s)-ENBA 0.17 μM, 175 nM MRS1754), 9.3%; in the experiment with MM.1S cells [6] ((s)-ENBA 0.17 μM, 178 nM DPCPX) it was 2.4%; in the experiment on MM.1S cells [6] ((s)-ENBA 0.17 μM, 183 nM MRS1523), 10%; in the experiment on MM.1S cells [6] ((s)-ENBA 0.17 μM, no antagonist), 6%; in the experiment with MM.1S cells [6] ((s)-ENBA 0.52 μM, 78 nM SCH58261), 6%. For the same compound, the “Percent inhibition … (S)-ENBA” value with MM.1S cells [6] ((s)-ENBA 0.52 μM, 175 nM MRS1754) was 10%; with MM.1S cells [6] ((s)-ENBA 0.52 μM, 178 nM DPCPX), 18%; with MM.1S cells [6] ((s)-ENBA 0.52 μM, 183 nM MRS1523), 14%; in the experiment with MM.1S cells [6] ((s)-ENBA 0.52 μM, no antagonist) it was 19%; in the experiment on MM.1S cells [6] ((s)-ENBA 1.6 μM, 78 nM SCH58261), 14%; in the experiment with MM.1S cells [6] ((s)-ENBA 1.6 μM, 175 nM MRS1754) it was 50%. Also, the “Percent inhibition … (S)-ENBA” value was found to be 37% in the experiment with MM.1S cells [6] ((s)-ENBA 1.6 μM, 178 nM DPCPX); 36% in the experiment with MM.1S cells [6] ((s)-ENBA 1.6 μM, 183 nM MRS1523); 41% in the experiment with MM.1S cells [6] ((s)-ENBA 1.6 μM, no antagonist); 12% with MM.1S cells [6] ((s)-ENBA 4.7 μM, 78 nM SCH58261); 47% in the experiment with MM.1S cells [6] ((s)-ENBA 4.7 μM, 175 nM MRS1754); 77% in the experiment on MM.1S cells [6] ((s)-ENBA 4.7 μM, 178 nM DPCPX). Also, the “Percent inhibition … (S)-ENBA” value with MM.1S cells [6] ((s)-ENBA 4.7 μM, 183 nM MRS1523) is recorded as 52%; with MM.1S cells [6] ((s)-ENBA 4.7 μM, no antagonist), 52%; in the experiment with MM.1S cells [6] ((s)-ENBA 14 μM, 78 nM SCH58261) it was 45%; in the experiment on MM.1S cells [6] ((s)-ENBA 14 μM, 175 nM MRS1754), 71%; in the experiment on MM.1S cells [6] ((s)-ENBA 14 μM, 178 nM DPCPX) it was 89%; in the experiment with MM.1S cells [6] ((s)-ENBA 14 μM, 183 nM MRS1523), 65%. Besides, in the experiment with MM.1S cells [6] ((s)-ENBA 14 μM, no antagonist), the “Percent inhibition … (S)-ENBA” value was 68%. The “Synergy score with dexamethasone, H929” value with H929 cells was found to be 7.82.
